The text below walks through data of US20040121460A1, “Differentiation of stem cells to pancreatic endocrine cells” (priority 2003, published 2004).

“Also recorded” adds a separate entry of the source.

In test [1] the test system is ES cell-derived insulin-secreting islet clusters. As to the kind of experiment: Insulin secretion from ES cell-derived islet clusters, insulin ELISA. In kind it is cell-based, murine. The settings on record: for insulin secretion in response to agonists (secretagogues): in the presence of low concentration (5 mM) of glucose. On the procedure: A series of experiments were conducted to measure the kinetics and pharmacology of glucose-dependent insulin release. Insulin secretion was measured in Krebs-Ringer-bicarbonate buffer containing 120 mM NaCl, 5 mM KCl, 2.5 mM CaCl2, 1.1 mM MgCl2, 25 mM NaHCO3 and 0.1% bovine serum albumin at 37° C. Inhibitors of insulin secretion (nifedipine and diazoxide) were added to buffer during preincubation (30 min) and throughout the incubation period. For determination of total cellular insulin content, insulin was extracted from cells with acid ethanol (10% glacial acetic acid in absolute ethanol) overnight at 4° C., followed by cell sonication. Total cellular and secreted insulin was assayed using insulin ELISA kit (ALPCO, Windham, N.H.). Protein concentrations were determined using DC protein assay system (Bio-Rad, Hercules, Calif.).
To determine if the islet clusters utilize physiological glucose-mediated signaling pathways, the effect of several well-characterized agonists and antagonists of insulin secretion were examined. The mechanism by which glucose stimulates insulin secretion in vivo is complex. As outlined in FIG. 3B, transport of glucose into the cell, and its metabolism results in ATP production, an event which, in turn, leads to inhibition of ATP-dependent K^+ channels, cell membrane depolarization, opening of the voltage-dependent Ca^++ channels, and influx of extracellular Ca^++ into the cell. Additionally, intracellular Ca^++ can be elevated by release of Ca^++ from intracellular stores through other mechanisms. Elevation of free intracellular Ca^++ is coupled to multiple phosphorylation events modulated by protein kinase C (PKC) and protein kinase A (PKA) cascades, which ultimately lead to release of insulin from the cell (McClenaghan et al., J Mol. Med., 77:235, 1999).

For test [2], the system named is ES cell cultures. As to the kind of experiment: LIF treatment of ES cell cultures at stage 2 (EB formation), immunostaining for EN-1, PDX-1, TuJ1, GFAP. In kind it is cell-based. On the procedure: FIG. 5 is a set of panels showing the neural and pancreatic differentiation of ES cells. FIG. 1A is a set of digital images showing the cells during the procedure for induction of midbrain dopaminergic neurons from ES cells as previous described (see WO 01/83715, herein incorporated by reference). Briefly, the ES cells were taken through 5 steps or stages. In stage 1 undifferentiated ES cells were cultured for 5 days in the presence of 15% fetal calf serum (FCS) on gelatin coated tissue culture dishes in the presence of LIF (1,400 U/ml). In stage 2 embryoid bodies (Ebs) were generated in the presence of FCS for 4 days in the presence or absence of LIF (1,000 U/ml.). In stage 3, the EBs were plated into ITSFn medium (Okabe et al., Mech. Dev. 59: 89-102, 1996) where over 10 days Nestin+ cells migrated from the cell aggregates. In stage 4 these Nestin+ cells were resuspended and expanded for 4 days in N2 medium containing bFGF, sonic hedgehog (Shh) and fibroblast growth factor-8 (FGF8). In stage 5 the medium was changed into N2 medium without bFGF, Shh or FGF8. These cells differentiated efficiently into neurons and astrocytes over a two week period. Embryoid bodies were generated in the presence (LIF+) or absence (LIF−) of LIF (1000 U/ml) and differentiated. Double-immunostaining for TuJ1/GFAP (upper panels, day 8 in stage 5) and PDX-1/En-1 (lower panels, day 3 in stage 4). LIF treatment in stage 2 (EB formation) increases the neuronal (TuJ1+cells, light grey) and decreases the astrocytic (GFAP+, dark grey) population. […] FIG. 5C is a bar graph showing that the yield of En-1+ and PDX-1+ cells is expressed as a percentage of total cells at stage 4.
The methods disclosed herein include five stages: (1) expansion of ES cells (2) generation of EB (3) selection for CNS precursor cells (4) expansion of pancreatic (versus central nervous system (CNS)) precursor cells, and (5) differentiation of pancreatic endocrine cells (versus differentiation of neuronal cells). Expansion of ES cells and generation of EB was performed as disclosed herein. EB were cultured in DMEM/15% serum (ES medium) with LIF (1000 units (U)/ml) for 4 days with changing medium every 2 day. After 4 days, EBs were transferred to a tissue culture dish cultured in ITS medium containing fibronectin for 10-12 days. EBs which were kept in absence of LIF in stage II were phenotypically different than EB cultured in the presence of LIF in stage II. In stage 1V, ES-derived CNS precursor were cultured in N2 medium in the presence of bFGF (20 ng/ml) and Shh (500 ng/ml) and FGF8 (100 ng/ml) for 4 days and after withdrawal of bFGF/SHH/FGF8, differentiated them for 10-12 day in N2 medium with ascorbic acid. Specifically, EB cultured in the absence of LIF were spread out in stage III. EBs which were treated with LIF maintained a round shape and CNS precursor cells migrated from attaching point of EB in dishes. Therefore, a selection for CNS precursor was accomplished by culturing in the […] of LIF.

Setting [3] is: at stage 4, LIF at stage 2 (EB formation).

As for `CCCCNC(=O)NS(=O)(=O)c1ccc(C)cc1` [tolbutamide], the “insulin secretion in response to agonists (secretagogues)” value (from here on “insulin secretion in response”) in test [1] was “stimulated insulin secretion”.

Take “LIF: growth factor that prevents differentiation of ES cells; glycosylated 58 kDa protein of 179 amino acids”: in test [2] (setting [3]), the “PDX-1 positive cells / pancreatic precursor cells” value is listed as “negatively regulates; also recorded: Only few” and the “expression of EN-1 / midbrain precursor cells (En-1+ cells)” value was “efficiently enhances; also recorded: increases”. For the same compound, in test [2] (at stage 4, LIF present at stage 2), the “EN-1 positive cells, share of total ES cell-derived cell population” value is given as “up to 80%”. For the same compound, in test [2] (at stage 5, LIF at stage 2 (EB formation)), the “yield of neurons / neuronal (TuJ1+) population” value was “increased”. Further, the “astrocytic (GFAP+) population” value in test [2] (day 8 in stage 5, LIF at stage 2 (EB formation)) was “decreases”.

Consider `CC(C)Cn1c(=O)n(C)c(=O)c2[nH]cnc21` [IBMX, 3-isobutil-1-methylxanthine], for which the “insulin secretion in response” value in test [1] is recorded as “stimulated insulin secretion”.

For `CC1=NS(=O)(=O)c2cc(Cl)ccc2N1` [diazoxide], the “insulin secretion in the presence of antagonists (inhibitors)” value in test [1] (in the presence of high glucose concentrations (20 mM)) is recorded as “inhibited insulin secretion”.

On to `C[N+](C)(C)CCOC(N)=O` [carbachol], for which the “insulin secretion in response” value in test [1] was “stimulated insulin secretion”.
